Results on one molecule are retold here after PMC4710668, “Bioactivation of food genotoxicants 5-hydroxymethylfurfural and furfuryl alcohol by sulfotransferases from human, mouse and rat: a comparative study” (Archives of Toxicology, 2014).

Each structure is given as a SMILES string.

What all share (test): HMF sulfoconjugation assay
Type in all cases: biochemical

The target of one experiment is T1, rSult2a1 (Rattus norvegicus, UniProt P15709).
T1 construct: made in house; host or cells: Salmonella typhimurium TA1538 (cytosolic fraction, enzyme not purified)
T1 sequence (P15709 1-284): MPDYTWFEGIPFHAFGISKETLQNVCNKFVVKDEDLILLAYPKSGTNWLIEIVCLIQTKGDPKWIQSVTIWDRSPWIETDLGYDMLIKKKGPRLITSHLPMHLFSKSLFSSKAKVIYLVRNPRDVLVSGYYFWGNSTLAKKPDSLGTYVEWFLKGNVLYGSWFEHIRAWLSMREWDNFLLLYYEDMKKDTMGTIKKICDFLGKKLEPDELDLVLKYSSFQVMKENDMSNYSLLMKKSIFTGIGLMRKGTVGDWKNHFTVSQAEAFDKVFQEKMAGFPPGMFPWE
The method, then:
(§1) Cytosolic fractions containing individual SULT forms were prepared from transgenic S. typhimurium TA1538. Table S1 in the Supplementary Material provides a summary of the thirty SULTs used in the current study together with references describing the cloning of the respective S. typhimurium TA1538 strains. The expressed SULT forms are denoted with the prefixes h, m and r for human, mouse and rat enzymes, respectively. Bacteria were grown in Luria Broth medium containing ampicillin (100 µg/ml) by stirring for 8 h at 200 revolutions/min at 37 °C. The bacterial suspensions were centrifuged at 5,000 g for 10 min. The sediments were washed twice with 25 ml of 10 mM potassium phosphate buffer (pH 7.4)/50 mM potassium chloride (KCP buffer) and centrifuged again. The pellets were taken up in 800 µl KCP buffer and sonicated thrice for 15 s with 30 s pauses in between. The soluble fraction was attained by centrifuging for 1 h at 100,000 g. The supernatants (in the following termed cytosolic preparations) were frozen at −80 °C. The protein concentrations were determined according to a bicinchoninic acid (BCA) assay protocol. The SULT concentrations in the cytosolic preparations were estimated after electrophoretic separation and immunodetection using inclusion bodies of different SULT forms as standards (Teubner et al. [2007]). The preparation of SULT inclusion bodies and the immunodetection of SULTs is described in the Supplementary Material, which also contains a representative immunoblot of different amounts of rSult1a1standard and a cytosolic preparation of S. typhimurium expressing rSult1a1 (Fig. S1).
(§2) The reactions were conducted in mixtures of 100 µl containing 25–200 µg protein, 50 mM potassium phosphate buffer (pH 7.4), 5 mM MgCl2, 50 µM PAPS and different concentrations of HMF at 37 °C. Preliminary experiments ensured that measurements were recorded under ‘linear’ conditions, i.e., doubling of protein concentration or incubation time was doubling the amount of sulfate ester formed. The reactions were stopped after 30 min by adding 300 µl ice-cold 2-propanol, mixed and centrifuged at 15,000 g for 10 min.
(§3) SMF concentrations of the clear supernatants were analyzed by UPLC-MS/MS. The protocol was adapted from the quantification of SMF in plasma samples of HMF-treated mice (Monien et al. [2009]). In short, the supernatants were analyzed using a UPLC system (Waters) connected to a Quattro Premier XE tandem quadrupole mass spectrometer (Waters) using the negative electrospray ionization mode. Samples of 4 µl were injected into a HSS T3 column (1.8 µm, 2.1 × 100 mm; Waters) and eluted with an isocratic flow of 0.35 ml/min 10 mM ammonium acetate/methanol (95:5). The fragmentation reactions of SMF yielding two principal ions, the sulfate ion radical (m/z = 204.9 → 96.0) and the protonated sulfonate ion (m/z = 204.9 → 81.0) were monitored. The tune parameters were as follows: temperature of the electrospray source 120 °C; desolvation temperature 475 °C; desolvation gas nitrogen (800 l/h); cone gas nitrogen (100 l/h); collision gas argon (indicated cell pressure ~5 × 10^−3 mbar). For the fragmentation of SMF, collision energies were 20 and 23 eV for the transitions m/z = 204.9 → 81.0 and m/z = 204.9 → 96.0, respectively. The dwell time was set to 100 ms, and capillary voltage was set to 0.35 kV. The cone and RF1 lens voltages were 32 and 0.2 V, respectively. SMF was quantified using an external calibration line that was linear in the concentration range of 1.0 nM (4 fmol/injection) to 2,500 (10 pmol/injection) SMF (r ^2 ≥ 0.99). Data acquisition and handling were performed with MassLynx 4.1 software (Waters). The limit of detection (LOD) for this technique of 2.5 nM SMF has been reported (Monien et al. [2009]). In the current study, this corresponds to 10 fmol SMF per injection or a reaction rate of 0.5 pmol SMF/mg/min.

Another experiment has as its target T2, mSult2a1 (Mus musculus, UniProt P52843).
T2 construct: made in house; host or cells: Salmonella typhimurium TA1538 (cytosolic fraction, enzyme not purified)
T2 sequence (P52843 1-285): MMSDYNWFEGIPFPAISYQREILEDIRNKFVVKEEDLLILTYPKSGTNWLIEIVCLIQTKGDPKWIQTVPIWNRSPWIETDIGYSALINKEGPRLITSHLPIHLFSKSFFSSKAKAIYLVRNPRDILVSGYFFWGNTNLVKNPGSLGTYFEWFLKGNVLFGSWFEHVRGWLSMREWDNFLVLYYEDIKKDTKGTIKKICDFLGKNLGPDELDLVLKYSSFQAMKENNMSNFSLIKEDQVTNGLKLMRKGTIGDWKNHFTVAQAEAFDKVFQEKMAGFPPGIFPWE
The procedure:
as §1, §2, §3

Another experiment addresses T3, hSULT1E1 (Homo sapiens, UniProt P49888).
T3 construct: made in house; host or cells: Salmonella typhimurium TA1538 (cytosolic fraction, not purified)
T3 sequence (P49888 1-294): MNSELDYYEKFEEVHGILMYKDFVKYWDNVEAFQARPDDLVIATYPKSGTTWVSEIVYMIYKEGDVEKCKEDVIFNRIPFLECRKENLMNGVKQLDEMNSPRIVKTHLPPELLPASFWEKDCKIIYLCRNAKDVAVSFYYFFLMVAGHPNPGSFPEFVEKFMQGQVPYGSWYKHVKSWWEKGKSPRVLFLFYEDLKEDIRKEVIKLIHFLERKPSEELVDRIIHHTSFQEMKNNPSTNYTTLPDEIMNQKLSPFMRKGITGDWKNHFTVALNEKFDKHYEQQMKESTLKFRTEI
The method, then:
as §1, §2, §3

The target of a further experiment is T4, hSULT1B1 (Homo sapiens, UniProt O43704).
T4 construct: made in house; host or cells: Salmonella typhimurium TA1538 (cytosolic fraction, not purified)
T4 sequence (O43704 whole entry): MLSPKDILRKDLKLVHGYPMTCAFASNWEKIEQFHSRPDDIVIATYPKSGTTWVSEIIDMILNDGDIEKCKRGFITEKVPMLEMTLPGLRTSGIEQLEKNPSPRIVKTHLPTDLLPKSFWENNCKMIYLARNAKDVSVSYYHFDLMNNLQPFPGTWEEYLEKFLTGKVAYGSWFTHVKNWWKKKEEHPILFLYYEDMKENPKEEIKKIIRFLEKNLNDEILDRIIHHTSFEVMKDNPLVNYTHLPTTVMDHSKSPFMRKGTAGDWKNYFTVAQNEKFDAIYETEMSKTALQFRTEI
The method, then:
as §1, §2, §3

Consider `O=Cc1ccc(CO)o1` [HMF, 5-Hydroxymethylfurfural], for which the Rate of sulfoconjugation is on record as less than 0.5 pmol/mg/min on rSult2a1 (0.1 mM HMF); 1.8 ± 0.1 pmol/mg/min at rSult2a1 (1 mM HMF); 17.2 ± 0.6 pmol/mg/min on rSult2a1 (10 mM HMF); 58.9 ± 4.6 pmol/mg/min on rSult2a1 (100 mM HMF); less than 0.5 pmol/mg/min on mSult2a1 (0.1 mM HMF); 1.3 ± 0.2 pmol/mg/min at mSult2a1 (1 mM HMF). Moreover, the Rate of sulfoconjugation on mSult2a1 (10 mM HMF) is 9.0 ± 0.9 pmol/mg/min; at mSult2a1 (100 mM HMF) it was 13.1 ± 1.7 pmol/mg/min; on hSULT1E1 (0.1 mM HMF) it was less than 0.5 pmol/mg/min; at hSULT1E1 (1 mM HMF), 1.0 ± 0.2 pmol/mg/min; at hSULT1E1 (10 mM HMF), 5.7 ± 0.8 pmol/mg/min; on hSULT1E1 (100 mM HMF), 7.7 ± 1.2 pmol/mg/min. Besides, the Rate of sulfoconjugation at hSULT1B1 (0.1 mM HMF) is on record as 2.0 ± 0.5 pmol/mg/min; at hSULT1B1 (1 mM HMF) it was 22.2 ± 5.2 pmol/mg/min; at hSULT1B1 (10 mM HMF), 133 ± 28 pmol/mg/min; at hSULT1B1 (100 mM HMF), 272 ± 49 pmol/mg/min. Moreover, the “K M” value at hSULT1B1 (HMF sulfoconjugation, Michaelis-Menten fit) stood at 13.3 ± 0.3 mM.
